Experimental findings from patent EP4810052A2, “HCRHR2 SELECTIVE POLYPEPTIDES” (Gubra A/S, priority 2023, dated 2026) are described below.

One assay deals with T1, hCRHR2 (Homo sapiens, UniProt Q13324).
T1 sequence (Q13324 1-411): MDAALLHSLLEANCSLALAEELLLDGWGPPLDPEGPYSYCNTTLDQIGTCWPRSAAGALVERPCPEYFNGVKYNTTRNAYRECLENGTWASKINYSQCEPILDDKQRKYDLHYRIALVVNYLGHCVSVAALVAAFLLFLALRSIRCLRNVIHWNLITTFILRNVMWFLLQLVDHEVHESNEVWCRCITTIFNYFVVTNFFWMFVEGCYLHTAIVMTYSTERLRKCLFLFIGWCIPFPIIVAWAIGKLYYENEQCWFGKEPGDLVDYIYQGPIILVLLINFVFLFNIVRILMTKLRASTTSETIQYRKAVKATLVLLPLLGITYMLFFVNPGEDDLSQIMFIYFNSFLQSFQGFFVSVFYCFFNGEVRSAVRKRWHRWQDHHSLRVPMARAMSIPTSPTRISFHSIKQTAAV
The assay can be described thus: HTRF cAMP assay, determination of hCRHR2 potency (peptide libraries 5 conc., purified peptides 11 conc.). It is filed as cell-based. The text has this: HTRF (CisBio) cAMP assay: The assay technology has thoroughly been described in the CisBio HTRF cAMP assay Kit manual (# 62AM4PEC). Briefly, time resolved fluorescence technic was applied to measure cAMP. This technic is based on a competitive immunoassay using cryptate-labelled anti-cAMP antibody and d2-labeled cAMP. In the absence of cellular cAMP, the anti-cAMP cryptate conjugate may get into proximity to cAMP-d2 conjugate and energy (FRET) can be transferred from cryptate to d2.
CHO-K1 cells stably expressing the human corticotropin-releasing hormone receptor 2 (Eurofins/DiscoverX, Cat #95-0048C2 hCRHR2 stable monoclonal cell lines) were used as cells in suspension, brought to life from frozen cell stocks immediately before assay performance.
Concentration-response evaluation of compounds was performed with 5 concentrations of agonist peptides and EC50 values were calculated by nonlinear regression using sigmoid concentration-response with variable slope.
Concentration-response evaluation of compounds was performed with 11 concentrations of agonist peptides and EC50 values were calculated by nonlinear regression using sigmoid concentration-response with variable slope.

The target in the next assay is T2, hCRHR1 (Homo sapiens, UniProt P34998).
T2 sequence (P34998 24-415): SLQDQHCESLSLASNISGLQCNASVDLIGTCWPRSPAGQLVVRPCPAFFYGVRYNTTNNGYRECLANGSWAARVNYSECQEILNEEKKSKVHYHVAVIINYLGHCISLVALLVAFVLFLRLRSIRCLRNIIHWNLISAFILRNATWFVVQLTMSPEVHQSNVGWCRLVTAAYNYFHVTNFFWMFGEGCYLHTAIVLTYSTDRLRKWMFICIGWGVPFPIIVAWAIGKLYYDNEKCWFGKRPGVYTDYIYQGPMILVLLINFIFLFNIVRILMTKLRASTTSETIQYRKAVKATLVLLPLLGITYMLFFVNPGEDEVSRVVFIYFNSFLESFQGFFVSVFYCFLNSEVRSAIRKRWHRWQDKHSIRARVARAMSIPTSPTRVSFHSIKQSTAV
Kind of assay: HTRF cAMP assay, determination of hCRHR1 potency (peptide libraries 5 conc., purified peptides 11 conc.). The class given is cell-based. The text has this: HTRF (CisBio) cAMP assay: The assay technology has thoroughly been described in the CisBio HTRF cAMP assay Kit manual (# 62AM4PEC). Briefly, time resolved fluorescence technic was applied to measure cAMP. This technic is based on a competitive immunoassay using cryptate-labelled anti-cAMP antibody and d2-labeled cAMP. In the absence of cellular cAMP, the anti-cAMP cryptate conjugate may get into proximity to cAMP-d2 conjugate and energy (FRET) can be transferred from cryptate to d2. CHO-K1 cells stably expressing the human corticotropin-releasing hormone receptor 1 (Eurofins/DiscoverX Cat #95-0047C2 hCRHR1 stable monoclonal cell lines) were used as cells in suspension, brought to life from frozen cell stocks immediately before assay performance. […] Concentration-response evaluation of compounds was performed with 5 concentrations of agonist peptides and EC50 values were calculated by nonlinear regression using sigmoid concentration-response with variable slope. Concentration-response evaluation of compounds was performed with 11 concentrations of agonist peptides and EC50 values were calculated by nonlinear regression using sigmoid concentration-response with variable slope.
(In general: TR-FRET usually uses a lanthanide donor and a delayed reading to cut background.)

Where [1] appears, read: library peptides, matched molecular pairs L vs Nle in position X^38, read-out: Potency hCRHR2 pEC50 (converted).
Where [2] appears, read: library peptides, matched molecular pairs L vs Nle in position X^38, read-out: Potency hCRHR1 pEC50 (converted).

Read-outs that look alike come from different tables or passages of the source. Starred links: 1 amine or outer side, 2 acyl side, 3 side chain; linkers in the order of their positions; H or OH if unused. Non-standard residues stand in square brackets, D forms with d. Residues, ends and D or L forms follow the SMILES beside them. Groups on a side chain read outwards from the residue. *: point of attachment. C20 diacid = O=C(O)CCCCCCCCCCCCCCCCCCC(=O)*; Pro(cis-4-F) = O=C(O)[C@@H]1C[C@H](F)CN1; γGlu = O=C(O)[C@H](CCC(=O)[*:2])N[*:1]; NMeI = CC[C@H](C)[C@H](NC)C(=O)O; Nle = CCCC[C@H](N)C(=O)O; Ac5c = NC1(C(=O)O)CCCC1; AEEA = NCCOCCOCC(=O)O; Aib = CC(C)(N)C(=O)O

In the case of `CCCC[C@H](NC(=O)[C@@H](NC(=O)[C@H](CCC(=O)O)NC(=O)C(C)(C)NC(=O)[C@H](CC(N)=O)NC(=O)[C@@H](NC(=O)[C@H](CCCCNC(=O)COCCOCCNC(=O)COCCOCCNC(=O)CC[C@H](NC(=O)CC[C@H](NC(=O)CCCCCCCCCCCCCCCCCCC(=O)O)C(=O)O)C(=O)O)NC(=O)[C@H](C)NC(=O)[C@H](CCC(N)=O)NC(=O)[C@H](CCC(=O)O)NC(=O)[C@H](CCCNC(=N)N)NC(=O)[C@H](C)NC(=O)[C@H](C)NC(=O)[C@H](CCCNC(=N)N)NC(=O)[C@H](C)NC(=O)[C@H](CCCNC(=N)N)NC(=O)[C@H](C)NC(=O)[C@H](CCC(N)=O)NC(=O)[C@@H](NC(=O)[C@H](CC(C)C)NC(=O)[C@H](CC(C)C)NC(=O)[C@@H](NC(=O)[C@H](CCC(N)=O)NC(=O)[C@H](CC(C)C)NC(=O)[C@H](CC(C)C)NC(=O)CNC(=O)[C@@H](NC(=O)[C@@H]1CCCN1C(=O)[C@@H](NC(=O)[C@H](CC(=O)O)NC(=O)[C@H](CC(C)C)NC(=O)[C@H](CO)NC(=O)[C@H](CC(C)C)NC(=O)[C@@H](NC(=O)[C@@H](NC)[C@@H](C)CC)C(C)C)C(C)C)[C@@H](C)CC)[C@@H](C)CC)[C@@H](C)CC)[C@@H](C)O)[C@@H](C)CC)C(=O)N[C@@H](C)C(=O)N[C@@H](CCC(=O)O)C(=O)N[C@H](C(N)=O)C(C)C` [compound 209] (H-[NMeI]VLSLDVPIGLLQILLIQARARAAREQAK([AEEA-AEEA-γGlu-γGlu-C20 diacid])TN[Aib]EI[Nle]AEV-NH2), the EC50 was 0.02 nM on hCRHR2 (Table 4, library peptides having X^38 = Nle, read-out: hCRHR2 pEC50 (converted)) and 3160 nM at hCRHR1 (Table 4, library peptides having X^38 = Nle, read-out: hCRHR1 pEC50 (converted)).
For the compound `CC[C@H](C)[C@H](N)C(=O)N[C@H](C(=O)N[C@@H](CC(C)C)C(=O)N[C@@H](CO)C(=O)N[C@@H](CC(C)C)C(=O)N[C@@H](CC(=O)O)C(=O)N[C@H](C(=O)N1CCC[C@H]1C(=O)N[C@H](C(=O)NCC(=O)N[C@@H](CC(C)C)C(=O)N[C@@H](CC(C)C)C(=O)N[C@@H](CCC(N)=O)C(=O)N[C@H](C(=O)N[C@@H](CC(C)C)C(=O)N[C@@H](CC(C)C)C(=O)N[C@@H](CCC(=O)O)C(=O)N[C@@H](CCC(N)=O)C(=O)N[C@@H](C)C(=O)N[C@@H](CCCNC(=N)N)C(=O)N[C@@H](C)C(=O)N[C@@H](CCCNC(=N)N)C(=O)N[C@@H](C)C(=O)N[C@@H](C)C(=O)N[C@@H](CCCNC(=N)N)C(=O)N[C@@H](CCC(=O)O)C(=O)N[C@@H](CCC(N)=O)C(=O)N[C@@H](C)C(=O)N[C@@H](CCCCNC(=O)COCCOCCNC(=O)COCCOCCNC(=O)CC[C@H](NC(=O)CC[C@H](NC(=O)CCCCCCCCCCCCCCCCCCC(=O)O)C(=O)O)C(=O)O)C(=O)N[C@H](C(=O)N[C@@H](CC(N)=O)C(=O)N[C@@H](C)C(=O)N[C@@H](CCC(=O)O)C(=O)N[C@H](C(=O)N[C@@H](CC(C)C)C(=O)N[C@@H](C)C(=O)N[C@@H](CCC(=O)O)C(=O)N[C@H](C(N)=O)[C@@H](C)CC)[C@@H](C)CC)[C@@H](C)O)[C@@H](C)CC)[C@@H](C)CC)C(C)C)C(C)C` [compound 68] (H-IVLSLDVPIGLLQILLEQARARAAREQAK([AEEA-AEEA-γGlu-γGlu-C20 diacid])TNAEILAEI-NH2), the EC50 on hCRHR2 (setting [1]) is 0.251 nM; at hCRHR1 (setting [2]), 63100 nM.
Take `CCCC[C@H](NC(=O)[C@@H](NC(=O)[C@H](CCC(=O)O)NC(=O)[C@H](C)NC(=O)[C@H](CC(N)=O)NC(=O)[C@@H](NC(=O)[C@H](CCCCNC(=O)COCCOCCNC(=O)COCCOCCNC(=O)CC[C@H](NC(=O)CC[C@H](NC(=O)CCCCCCCCCCCCCCCCCCC(=O)O)C(=O)O)C(=O)O)NC(=O)[C@H](C)NC(=O)[C@H](CCC(N)=O)NC(=O)[C@H](CCC(=O)O)NC(=O)[C@H](CCCNC(=N)N)NC(=O)[C@H](C)NC(=O)[C@H](C)NC(=O)[C@H](CCCNC(=N)N)NC(=O)[C@H](C)NC(=O)[C@H](CCCNC(=N)N)NC(=O)[C@H](C)NC(=O)[C@H](CCC(N)=O)NC(=O)[C@H](CCC(=O)O)NC(=O)[C@H](CC(C)C)NC(=O)[C@H](CC(C)C)NC(=O)[C@@H](NC(=O)[C@H](CCC(N)=O)NC(=O)[C@H](CC(C)C)NC(=O)[C@H](CC(C)C)NC(=O)CNC(=O)[C@@H](NC(=O)[C@@H]1C[C@H](F)CN1C(=O)C1(NC(=O)[C@H](CC(=O)O)NC(=O)[C@H](CC(C)C)NC(=O)[C@H](CO)NC(=O)[C@H](CC(C)C)NC(=O)[C@@H](NC(=O)[C@@H](N)[C@@H](C)CC)C(C)C)CCCC1)[C@@H](C)CC)[C@@H](C)CC)[C@@H](C)O)[C@@H](C)CC)C(=O)N[C@@H](C)C(=O)N[C@@H](CCC(=O)O)C(=O)N[C@H](C(N)=O)C(C)C` [compound 87] (H-IVLSLD[Ac5c][Pro(cis-4-F)]IGLLQILLEQARARAAREQAK([AEEA-AEEA-γGlu-γGlu-C20 diacid])TNAEI[Nle]AEV-NH2): the figures for the EC50 at hCRHR2 (setting [1]) and on hCRHR1 (setting [2]) were 0.316 nM and 2.51 nM, respectively.
Regarding `CCCC[C@H](NC(=O)[C@@H](NC(=O)[C@H](CCC(=O)O)NC(=O)[C@H](C)NC(=O)[C@H](CC(N)=O)NC(=O)[C@@H](NC(=O)[C@H](CCCCNC(=O)COCCOCCNC(=O)COCCOCCNC(=O)CC[C@H](NC(=O)CC[C@H](NC(=O)CCCCCCCCCCCCCCCCCCC(=O)O)C(=O)O)C(=O)O)NC(=O)[C@H](C)NC(=O)[C@H](CCC(N)=O)NC(=O)[C@H](CCC(=O)O)NC(=O)[C@H](CCCNC(=N)N)NC(=O)[C@H](C)NC(=O)[C@H](CO)NC(=O)[C@H](CCCNC(=N)N)NC(=O)[C@H](C)NC(=O)[C@H](CCCNC(=N)N)NC(=O)[C@H](C)NC(=O)[C@H](CCC(N)=O)NC(=O)[C@H](CCC(=O)O)NC(=O)[C@H](CC(C)C)NC(=O)[C@H](CC(C)C)NC(=O)[C@@H](NC(=O)[C@H](CCC(N)=O)NC(=O)[C@H](CC(C)C)NC(=O)[C@H](CC(C)C)NC(=O)CNC(=O)[C@@H](NC(=O)[C@@H]1CCCN1C(=O)[C@@H](NC(=O)[C@H](CC(=O)O)NC(=O)[C@H](CC(C)C)NC(=O)[C@H](CO)NC(=O)[C@H](CC(C)C)NC(=O)[C@@H](NC(=O)[C@@H](N)[C@@H](C)CC)C(C)C)C(C)C)[C@@H](C)CC)[C@@H](C)CC)[C@@H](C)O)[C@@H](C)CC)C(=O)N[C@@H](C)C(=O)N[C@@H](CCC(=O)O)C(=O)N[C@H](C(N)=O)C(C)C` [compound 61] (H-IVLSLDVPIGLLQILLEQARARSAREQAK([AEEA-AEEA-γGlu-γGlu-C20 diacid])TNAEI[Nle]AEV-NH2), the EC50 at hCRHR2 (setting [1]) is 0.1 nM; on hCRHR1 (setting [2]), 1260 nM.
